Measured values taken from PubChem BioAssay AID1259411 (Chemical Carcinogenesis Research Information System (CCRIS), 2018).
Activity calls are given as the source filed them. How the calls were made is not given here.

System: rodent carcinogenicity bioassays, tumor incidence
Assay: CCRIS carcinogenicity studies
In short: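 Archive of carcinogenicity, mutagenicity, tumor promotion and tumor inhibition results drawn from journals, NCI reports and other sources, expert-reviewed; covers 1985-2011 and is no longer updated.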

`OC[C@@H](O)[C@@H](O)CO` was tested, and the carcinogen call (Species: DOG, Strain/Sex: BEAGLE/FEMALE, Route: ORAL, Dose: 0, 2, 5, 10% IN DIET FOR 53 WK (STUDY DURATION: 53 WK), Dose: 0, 2, 5, 10% IN DIET FOR 53 WK (STUDY DURATION: 53 WK)) was “inactive; negative”, the carcinogen call (Species: DOG, Strain/Sex: BEAGLE/MALE, Route: ORAL, Dose: 0, 2, 5, 10% IN DIET FOR 53 WK (STUDY DURATION: 53 WK), Dose: 0, 2, 5, 10% IN DIET FOR 53 WK (STUDY DURATION: 53 WK)) was “inactive; negative” and the carcinogen call (Species: RAT, Strain/Sex: WISTAR/FEMALE, Route: ORAL, Dose: 0, 2, 5, 10% IN DIET FOR 104 WK (STUDY DURATION: 104 WK), Dose: 0, 2, 5, 10% IN DIET FOR 104 WK (STUDY DURATION: 104 WK)) was “inactive; negative”. For the same compound, the carcinogen call (Species: RAT, Strain/Sex: WISTAR/MALE, Route: ORAL, Dose: 0, 2, 5, 10% IN DIET FOR 104 WK (STUDY DURATION: 104 WK), Dose: 0, 2, 5, 10% IN DIET FOR 104 WK (STUDY DURATION: 104 WK)) was “inactive; negative”.
For `O=CC(O)C(O)C(O)C(O)COC1OC(COC2OC(CO)C(O)C(O)C2O)C(O)C(O)C1O` (configuration not stated), the carcinogen call (Species: RAT, Strain/Sex: ACI/FEMALE, Route: ORAL, Dose: 0, 2.5% (MOL. WT. 21500) IN DIET FOR 480 D (STUDY DURATION: 480 D)) was “inactive; negative” and the carcinogen call (Species: RAT, Strain/Sex: ACI/MALE, Route: ORAL, Dose: 0, 2.5% (MOL. WT. 21500) IN DIET FOR 480 D (STUDY DURATION: 480 D)) was “inactive; negative”.
With `COC(=O)C1=CCCN(C)C1` the carcinogen call (Species: MOUSE, Strain/Sex: SWISS/FEMALE, Route: GAVAGE, Dose: 0, 1 MG/D 5 D/WK FOR LIFE (STUDY DURATION: LIFE)) was “inactive; negative” and the carcinogen call (Species: MOUSE, Strain/Sex: SWISS/MALE, Route: GAVAGE, Dose: 0, 1 MG/D 5 D/WK FOR LIFE (STUDY DURATION: LIFE), Tumor Site: Type of Lesion: LIVER: HEMANGIOMA, LUNG: ADENOCARCINOMA, STOMACH: SQUAMOUS CELL CARCINOMA, Tumor Site: Type of Lesion: LIVER: HEMANGIOMA, LUNG: ADENOCARCINOMA, STOMACH: SQUAMOUS CELL CARCINOMA) was “active; positive”.
`[O]=[Al][O][Si](=O)O[Si](=O)[O][Al]=[O]` was tested, and the carcinogen call (Species: Rat, Strain/Sex: Wistar/Female (48/group), Route: Intratracheal, Dose: 6 mg instillations of 0.01-0.03 um particles given as 10 or 20 doses wk 26, study duration 115 or 121 wk or no treatment, Tumor Site: Type of Lesion: Lung: Bronchiolo-alveolar adenoma (12/48 and 11/47 in experimental animals vs 1/46 control animals), bronchiolo-alveolar) was “active; positive”.
In the case of `CN(C)C(=S)SSC(=S)N(C)C`, the carcinogen call (Species: DOG, Strain/Sex: BEAGLE/FEMALE, Route: ORAL, Dose: 0, 0.4, 4, 40 MG/KG/D ADMINISTERED IN GELATIN CAPSULES 7 D/WK FOR 104 WK (STUDY DURATION: 104 WK), Dose: 0, 0.4, 4, 40 MG/KG/D ADMINISTERED IN GELATIN CAPSULES 7 D/WK FOR 104 WK (STUDY DURATION: 104 WK)) is reported as “inactive; negative”, the carcinogen call (Species: DOG, Strain/Sex: BEAGLE/MALE, Route: ORAL, Dose: 0, 0.4, 4, 40 MG/KG/D ADMINISTERED IN GELATIN CAPSULES 7 D/WK FOR 104 WK (STUDY DURATION: 104 WK), Dose: 0, 0.4, 4, 40 MG/KG/D ADMINISTERED IN GELATIN CAPSULES 7 D/WK FOR 104 WK (STUDY DURATION: 104 WK)) is reported as “inactive; negative” and the carcinogen call (Species: MOUSE, Strain/Sex: SWISS/FEMALE, Route: DERMAL, Dose: 0, 100 MG/KG BW IN 100 µL DMSO 3/WK FOR 52 WK (STUDY DURATION: 52 WK)) is reported as “inactive; negative”. For the same compound, the carcinogen call (Species: MOUSE, Strain/Sex: SWISS/MALE, Route: 0, 100 MG/KG BW IN 100 µL DMSO 3/WK FOR 52 WK (STUDY DURATION: 52 WK)) was “inactive; negative”, the carcinogen call (Species: RAT, Strain/Sex: F344/FEMALE, Route: ORAL, Dose: 0, 0.05, 0.1% IN DIET FOR 104 WK (STUDY DURATION: 112 WK), Dose: 0, 0.05, 0.1% IN DIET FOR 104 WK (STUDY DURATION: 112 WK)) was “inactive; negative” and the carcinogen call (Species: RAT, Strain/Sex: F344/MALE, Route: ORAL, Dose: 0, 0.05, 0.1% IN DIET FOR 104 WK (STUDY DURATION: 112 WK), Dose: 0, 0.05, 0.1% IN DIET FOR 104 WK (STUDY DURATION: 112 WK)) was “inactive; negative”. For the same compound, the carcinogen call (Species: RAT, Strain/Sex: WISTAR/FEMALE, Route: ORAL, Dose: 0, 3, 30, 300 PPM IN DIET FOR 104 WK (STUDY DURATION: 104 WK), Dose: 0, 3, 30, 300 PPM IN DIET FOR 104 WK (STUDY DURATION: 104 WK)) was “inactive; negative” and the carcinogen call (Species: RAT, Strain/Sex: WISTAR/MALE, Route: ORAL, Dose: 0, 3, 30, 300 PPM IN DIET FOR 104 WK (STUDY DURATION: 104 WK), Dose: 0, 3, 30, 300 PPM IN DIET FOR 104 WK (STUDY DURATION: 104 WK)) was “inactive; negative”.
For `CCCNC(=O)NS(=O)(=O)c1ccc(Cl)cc1`, the carcinogen call (Species: MOUSE, Strain/Sex: B6C3F1/FEMALE, Route: ORAL, Dose: 0, 3317, 6635 PPM IN DIET, Dose: 0, 3317, 6635 PPM IN DIET) was “inactive; negative”, the carcinogen call (Species: MOUSE, Strain/Sex: B6C3F1/MALE, Route: ORAL, Dose: 0, 3317, 6635 PPM IN DIET, Dose: 0, 3317, 6635 PPM IN DIET) was “inactive; negative” and the carcinogen call (Species: RAT, Strain/Sex: F344/FEMALE, Route: ORAL, Dose: 0, 3000, 6000 PPM IN DIET, Dose: 0, 3000, 6000 PPM IN DIET) was “inactive; negative”. For the same compound, the carcinogen call (Species: RAT, Strain/Sex: F344/MALE, Route: ORAL, Dose: 0, 3000, 6000 PPM IN DIET, Dose: 0, 3000, 6000 PPM IN DIET) was “inactive; negative”.
In the case of `OC1c2ccc3cc4ccccc4nc3c2C2OC2C1O` (configuration not stated), the carcinogen call (Species: MOUSE, Strain/Sex: SWISS/FEMALE, Route: INTRAPERITONEAL, Dose: 0, 0.5 UMOL GIVEN AS 70 NMOL IN 5 µL DMSO WITHIN 24 HR OF BIRTH, 140 NMOL IN 10 µL DMSO ON D 8 OF LIFE, AND 280 NMOL IN, Tumor Site: Type of Lesion: LUNG: ADENOMA) is reported as “active; positive”, the carcinogen call (Species: MOUSE, Strain/Sex: SWISS/FEMALE, Route: INTRAPERITONEAL, Dose: 0, 1.05 UMOL GIVEN AS 150 NMOL IN 5 µL DMSO WITHIN 24 HR OF BIRTH, 300 NMOL IN 10 µL DMSO ON D 8 OF LIFE, AND 600 NMOL I, Tumor Site: Type of Lesion: LUNG: ADENOMA) is reported as “active; positive” and the carcinogen call (Species: MOUSE, Strain/Sex: SWISS/MALE, Route: INTRAPERITONEAL, Dose: 0, 0.5 UMOL GIVEN AS 70 NMOL IN 5 µL DMSO WITHIN 24 HR OF BIRTH, 140 NMOL IN 10 µL DMSO ON D 8 OF LIFE, AND 280 NMOL IN, Tumor Site: Type of Lesion: LUNG: ADENOMA, LIVER: NEOPLASTIC NODULE) is reported as “active; positive”. The carcinogen call (Species: MOUSE, Strain/Sex: SWISS/MALE, Route: INTRAPERITONEAL, Dose: 0, 1.05 UMOL GIVEN AS 150 NMOL IN 5 µL DMSO WITHIN 24 HR OF BIRTH, 300 NMOL IN 10 µL DMSO ON D 8 OF LIFE, AND 600 NMOL I, Tumor Site: Type of Lesion: LUNG: ADENOMA, LIVER: NEOPLASTIC NODULE) was “active; positive”.
With `Cl/C=C\CCl` the carcinogen call (Species: MOUSE, Strain/Sex: ICR/FEMALE, Route: SUBCUTANEOUS, Dose: 3.0 MG/INJ IN 0.05 ML TRIOCTANOIN 1/WK, Tumor Site: Type of Lesion: INJECTION SITE: FIBROSARCOMA) was “active; positive”.
For `CC(=O)CCNCN=O`, the carcinogen call (Species: HAMSTER, Strain/Sex: SYRIAN/FEMALE, Route: SUBCUTANEOUS, Dose: 20.25, 40.5, 81MG/KG 1/WK FOR LIFE, Dose: 20.25, 40.5, 81MG/KG 1/WK FOR LIFE, Tumor Site: Type of Lesion: NASAL CAVITY: ADENOCARCINOMA, ORAL CAVITY (CHEEK POUCH): SQUAMOUS CELL PAPILLOMA, SQUAMOUS CELL CARCINOMA, COLON: CARCIN, Tumor Site: Type of Lesion: NASAL CAVITY: ADENOCARCINOMA, ORAL CAVITY (CHEEK POUCH): SQUAMOUS CELL PAPILLOMA, SQUAMOUS CELL CARCINOMA, COLON: CARCIN) was “active; positive” and the carcinogen call (Species: HAMSTER, Strain/Sex: SYRIAN/MALE, Route: SUBCUTANEOUS, Dose: 17.63, 35.25, 70.5 MG/KG 1/WKFOR LIFE, Dose: 17.63, 35.25, 70.5 MG/KG 1/WKFOR LIFE, Tumor Site: Type of Lesion: NASAL CAVITY: ADENOCARCINOMA, ORAL CAVITY (CHEEK POUCH): SQUAMOUS CELL PAPILLOMA, SQUAMOUS CELL CARCINOMA, COLON: CARCIN, Tumor Site: Type of Lesion: NASAL CAVITY: ADENOCARCINOMA, ORAL CAVITY (CHEEK POUCH): SQUAMOUS CELL PAPILLOMA, SQUAMOUS CELL CARCINOMA, COLON: CARCIN) was “active; positive”.
`CN[C@@H](C)[C@H](O)c1ccccc1` was tested, and the carcinogen call (Species: MOUSE, Strain/Sex: B6C3F1/FEMALE, Route: ORAL, Dose: 0, 125, 250 PPM IN DIET FOR 103 WK, Dose: 0, 125, 250 PPM IN DIET FOR 103 WK) was “inactive; negative”, the carcinogen call (Species: MOUSE, Strain/Sex: B6C3F1/MALE, Route: ORAL, Dose: 0, 125, 250 PPM IN DIET FOR 103 WK, Dose: 0, 125, 250 PPM IN DIET FOR 103 WK) was “inactive; negative” and the carcinogen call (Species: RAT, Strain/Sex: F344/FEMALE, Route: ORAL, Dose: 0, 125, 250 PPM IN DIET FOR 103 WK, Dose: 0, 125, 250 PPM IN DIET FOR 103 WK) was “inactive; negative”. The carcinogen call (Species: RAT, Strain/Sex: F344/MALE, Route: ORAL, Dose: 0, 125, 250 PPM IN DIET FOR 103 WK, Dose: 0, 125, 250 PPM IN DIET FOR 103 WK) was “inactive; negative”.
